{"source": "patent USRE42748E1", "about": "“Oral DTPA for radionuclide chelation” (priority 2006, dated 2011)", "key": {"rat colon": {"tested_on": "rat colon", "assay": "Ussing chamber mucosal to serosal transport across rat colon", "format": "in vitro ADME", "conditions": "5 mg/ml of DTPA in HEPES Buffer", "description": "(§1) The primary objective of these in vitro studies was to determine a formulation containing permeation enhancers/other additives that achieved maximum transport of DTPA from mucosal to serosal side of the intestine. The mucosal to serosal absorption of DTPA (Zinc/Calcium) was measured in vitro across harvested rat intestinal segments and colon, in an EasyMount Ussing System (Physiological Instruments Inc., CA, Item #EM-CSYS-8). The Ussing chamber consists of two diffusion chambers, a heating block for temperature control, needle valves for gas flow adjustment and gas lift stirring, and Ag/AgCl voltage and current electrodes for measuring transepithelial voltage and for passing current. Representative sections of the harvested rat small intestinal segments (jejunum, duodenum, and ileum) and the rat colon were mounted on sliders placed between the chambers, and DTPA (Zinc/Calcium) transport across the sections was monitored. Aliquots of sample solution were removed from the ‘serosal’ side at 30 min intervals and analyzed by high performance liquid chromatography (HPLC). The change in mucosal to serosal transport of DTPA (Zinc/Calcium) in the presence of different permeation enhancers was determined.\n(§2) Zn-DTPA and Ca-DTPA was dissolved in HEPES buffer (VWR, Brisbane, Calif.), with or without additives, at the predetermined drug concentrations. […]"}, "[1]": {"tested_on": "harvested rat small intestinal segments: Jejunum", "assay": "Ussing chamber mucosal to serosal transport across rat jejunum", "format": "in vitro ADME", "description": "as §1\nZn-DTPA and Ca-DTPA was dissolved in HEPES buffer (VWR, Brisbane, Calif.), with or without additives, at the predetermined drug concentrations. HEPES buffer was used as the base mucosal and serosal fluid. Before initiating the experiment, 5 ml of HEPES buffer was added to each of the two chambers (mucosal and serosal) and was allowed to equilibrate for 20 min. Next, the mucosal buffer was replaced by the appropriate formulation to be tested and the experiment was initiated. Aliquots (0.5 ml) were collected from the serosal side and were replaced with an equivalent amount of fresh HEPES buffer (maintained at physiological temperature). The aliquotted samples from the serosal side were analyzed by HPLC.\nOwing to the expected variation in the in vitro conditions and harvested rat intestinal segments, five replicates were used per experimental condition. In order to compare data obtained from the different experiments, the apparent permeability coefficients (Papp) were calculated according to:\n[formula] Where, dQ/dt is the linear appearance rate of mass in receiver compartment, C0 is the initial solute concentration in donor compartment, and A is the surface area. The higher the Papp value, the better the permeation property. The similarity of the Papp values indicates similar behavior for the two DTPA compounds.\nWe then evaluated transport of Zn-DTPA and Ca-DTPA through jejunum segments with and without Labrasol.\nWe then tested the transport of 100 mg/ml DTPA in HEPES buffer with and without added enhancers across jejunum segments; results are in Table 3."}, "[2]": {"tested_on": "harvested rat small intestinal segments: Ileum", "assay": "Ussing chamber mucosal to serosal transport across rat ileum", "format": "in vitro ADME", "conditions": "5 mg/ml of DTPA in HEPES Buffer", "description": "as §1, §2"}, "[3]": {"assay": "Bioavailability study after liquid dose of radiolabeled DTPA (14C) in male Sprague-Dawley rats (SRI Study B230-06)", "format": "in vivo", "conditions": "for AUC0→last Mean ± SD / AUC0→last: 16.38 mg-equiv DTPA/Kg", "description": "The objective of this study was to determine the oral bioavailability of Ca-DTPA using radioactive ^14C-DTPA tracer for detection in male Sprague Dawley rats after oral administration in several different formulations. After oral gavage of Ca-DTPA or DTPA (free acid) in sterile water, the oral bioavailability of DTPA is estimated to be about 7% in these two treatment groups. […] In Group 7, which also was administered DTPA in 20% Labrasol (+Quinidine pretreatment), the mean bioavailability was 10%, but this group had greater interindividual variability than seen in the other treatment groups."}, "[4]": {"tested_on": "harvested rat small intestinal segments: Duodenum", "assay": "Ussing chamber mucosal to serosal transport across rat duodenum", "format": "in vitro ADME", "conditions": "5 mg/ml of DTPA in HEPES Buffer", "description": "as §1, §2"}}, "note": "Where “and” joins values, the source holds several entries; their conditions need not be identical. Equal values may be shown once.", "data": [{"smiles": "O=C([O-])CN(CCN(CC(=O)[O-])CC(=O)[O-])CCN(CC(=O)[O-])CC(=O)[O-].[Ca+2].[Na+].[Na+].[Na+]", "note": "[Ca-DTPA, calcium diethylenetriaminepentaacetate]", "values": [{"measurement": "Papp", "setting": "rat colon", "value": 3.22, "unit": "×10⁻⁶ cm/s"}, {"measurement": "Papp", "setting": "[1]; Jejunum, 5 mg/ml of drug in HEPES Buffer", "value": 3.84, "unit": "×10⁻⁶ cm/s"}, {"measurement": "Papp", "setting": "[1]; jejunum, 5 mg/ml of drug in HEPES Buffer containing 10% Labrasol", "value": 2.84, "unit": "×10⁻⁶ cm/s"}, {"measurement": "Papp", "setting": "[1]; jejunum, 5 mg/ml of drug in HEPES Buffer containing 20% Labrasol", "value": 3.48, "unit": "×10⁻⁶ cm/s"}, {"measurement": "Papp", "setting": "[1]; jejunum, 5 mg/ml of drug in HEPES Buffer containing 40% Labrasol", "value": 13.51, "unit": "×10⁻⁶ cm/s"}, {"measurement": "Papp", "setting": "[1]; jejunum, 100 mg/ml DTPA in HEPES buffer, 5% Gelucire 44/14 + 5% Labrasol", "value": 7.27, "unit": "×10⁻⁶ cm/s"}, {"measurement": "Papp", "setting": "[1]; jejunum, 100 mg/ml DTPA in HEPES buffer, 5% TPGS + 5% Labrasol", "value": 14.04, "unit": "×10⁻⁶ cm/s"}, {"measurement": "Papp", "setting": "[1]; jejunum, 100 mg/ml DTPA in HEPES buffer, 5% TPGS + 20% Labrasol", "value": 7.85, "unit": "×10⁻⁶ cm/s"}, {"measurement": "Papp", "setting": "[1]; jejunum, 100 mg/ml DTPA in HEPES buffer, 5% Tween 80 + 5% Capmul PG-8", "value": 3.61, "unit": "×10⁻⁶ cm/s"}, {"measurement": "Papp", "setting": "[1]; jejunum, 100 mg/ml DTPA in HEPES buffer, 5% Tween 80 + 5% Labrasol", "value": 11.61, "unit": "×10⁻⁶ cm/s"}, {"measurement": "Papp", "setting": "[1]; jejunum, 100 mg/ml DTPA in HEPES buffer, 5% Tween 80 and 5% Caproyl PGMC", "value": 2.75, "unit": "×10⁻⁶ cm/s"}, {"measurement": "Papp", "setting": "[1]; jejunum, 100 mg/ml DTPA in HEPES buffer, 5% Tween 80 and 5% Labrafil", "value": 2.83, "unit": "×10⁻⁶ cm/s"}, {"measurement": "Papp", "setting": "[1]; jejunum, 100 mg/ml DTPA in HEPES buffer, 10% Gelucire 44/14", "value": 6.57, "unit": "×10⁻⁶ cm/s"}, {"measurement": "Papp", "setting": "[1]; jejunum, 100 mg/ml DTPA in HEPES buffer, 10% Tween 80", "value": 5.43, "unit": "×10⁻⁶ cm/s"}, {"measurement": "Papp", "setting": "[1]; jejunum, 100 mg/ml DTPA in HEPES buffer, 20% Bile Salt", "value": 12.65, "unit": "×10⁻⁶ cm/s"}, {"measurement": "Papp", "setting": "[1]; jejunum, 100 mg/ml of drug in HEPES Buffer containing 10% Labrasol", "value": 6.29, "unit": "×10⁻⁶ cm/s"}, {"measurement": "Papp", "setting": "[1]; jejunum, 100 mg/ml of drug in HEPES Buffer containing 20% Labrasol", "value": 11.76, "unit": "×10⁻⁶ cm/s"}, {"measurement": "Papp", "setting": "[1]; jejunum, 100 mg/ml of drug in HEPES Buffer only", "value": 4.63, "unit": "×10⁻⁶ cm/s"}, {"measurement": "Papp", "setting": "[2]", "value": 2.8, "unit": "×10⁻⁶ cm/s"}, {"measurement": "% Bioavailability", "setting": "[3]; Group 1 IV, saline (reference)", "value": 100, "unit": "%"}, {"measurement": "% Bioavailability Mean ± SD", "setting": "[3]; Group 1 IV, saline (reference)", "value": 100.00, "unit": "%"}, {"measurement": "AUC0→last Mean ± SD", "setting": "[3]; Group 1 IV, saline, last time point 3 hr", "value": "17.73 ± 0.63 Hr * ( ng/ml)"}, {"measurement": "AUC0→last", "setting": "[3]; Group 1 IV, saline, last time point 3 hr, individual rats", "value": "17.3934 Hr * ( ng/ml) and 17.34 Hr * ( ng/ml) and 18.4585 Hr * ( ng/ml)"}, {"measurement": "AUC0→last Mean ± SD", "setting": "[3]; Group 2 Oral, water, 6 hr", "value": "1.22 ± 0.05 Hr * ( ng/ml)"}, {"measurement": "AUC0→last", "setting": "[3]; Group 2 Oral, water, last time point 6 hr, individual rats", "value": "1.2411 Hr * ( ng/ml) and 1.1632 Hr * ( ng/ml) and 1.2516 Hr * ( ng/ml)"}, {"measurement": "% Bioavailability", "setting": "[3]; Group 2 Oral, water, individual rats", "value": "7.00% and 6.56% and 7.06%"}, {"measurement": "% Bioavailability Mean ± SD", "setting": "[3]; Group 4 Oral, 20% Labrasol", "value": "12.14 ± 2.29", "unit": "%"}, {"measurement": "AUC0→last Mean ± SD", "setting": "[3]; Group 4 Oral, 20% Labrasol, 6 hr", "value": "2.15 ± 0.41 Hr * ( ng/ml)"}, {"measurement": "AUC0→last", "setting": "[3]; Group 4 Oral, 20% Labrasol, last time point 6 hr, individual rats", "value": "1.6901 Hr * ( ng/ml) and 2.3145 Hr * ( ng/ml) and 2.4507 Hr * ( ng/ml)"}, {"measurement": "% Bioavailability", "setting": "[3]; Group 4 Oral, 20% Labrasol, individual rats", "value": "9.53% and 13.05% and 13.82%"}, {"measurement": "% Bioavailability Mean ± SD", "setting": "[3]; Group 5 Oral, 5% Labrasol", "value": "7.12 ± 1.37", "unit": "%"}, {"measurement": "AUC0→last Mean ± SD", "setting": "[3]; Group 5 Oral, 5% Labrasol, 6 hr", "value": "1.26 ± 0.24 Hr * ( ng/ml)"}, {"measurement": "AUC0→last", "setting": "[3]; Group 5 Oral, 5% Labrasol, last time point 6 hr, individual rats", "value": "1.4714 Hr * ( ng/ml) and 0.9971 Hr * ( ng/ml) and 1.3181 Hr * ( ng/ml)"}, {"measurement": "% Bioavailability", "setting": "[3]; Group 5 Oral, 5% Labrasol, individual rats", "value": "8.30% and 5.62% and 7.43%"}, {"measurement": "% Bioavailability Mean ± SD", "setting": "[3]; Group 6 Oral, 5% TPGS + 5% Labrasol", "value": "7.909 ± 0.84", "unit": "%"}, {"measurement": "AUC0→last Mean ± SD", "setting": "[3]; Group 6 Oral, 5% TPGS + 5% Labrasol, 6 hr", "value": "1.40 ± 0.15 Hr * ( ng/ml)"}, {"measurement": "AUC0→last", "setting": "[3]; Group 6 Oral, 5% TPGS + 5% Labrasol, last time point 6 hr, individual rats", "value": "1.3506 Hr * ( ng/ml) and 1.284 Hr * ( ng/ml) and 1.5688 Hr * ( ng/ml)"}, {"measurement": "% Bioavailability", "setting": "[3]; Group 6 Oral, 5% TPGS + 5% Labrasol, individual rats", "value": "7.62% and 7.24% and 8.85%"}, {"measurement": "AUC0→last Mean ± SD", "setting": "[3]; Group 7 Oral, 0.15 mM Quinidine 20 min before, then 20% Labrasol, 6 hr", "value": "1.81 ± 1.39 Hr * ( ng/ml)"}, {"measurement": "AUC0→last", "setting": "[3]; Group 7 Oral, 0.15 mM Quinidine 20 min before, then 20% Labrasol, last time point 6 hr, individual rats", "value": "3.3876 Hr * ( ng/ml) and 1.2912 Hr * ( ng/ml) and 0.7655 Hr * ( ng/ml)"}, {"measurement": "% Bioavailability Mean ± SD", "setting": "[3]; Group 7 Oral, 0.15 mM Quinidine pretreatment then 20% Labrasol", "value": "10.23 ± 7.82", "unit": "%"}, {"measurement": "% Bioavailability", "setting": "[3]; Group 7 Oral, 0.15 mM Quinidine pretreatment then 20% Labrasol, individual rats", "value": "19.10% and 7.28% and 4.32%"}, {"measurement": "Papp", "setting": "[4]", "value": 1.71, "unit": "×10⁻⁶ cm/s"}]}]}
